Reference: patent US9796733B2, “Imidazo-pyrazine derivatives useful as soluble guanylate cyclase activators” (Merck Sharp & Dohme Corp., priority 2014, dated 2017)

How the values were obtained:
sGC α1/β1 heterodimer = target: T1, sGC α1/β1 heterodimer (Homo sapiens, UniProt Q02108+Q02153); assay: Cell-based sGC functional assay (CASA assay): cGMP generation in CHO-K1/sGC cells, HTRF detection; conditions: for Emax: CHO-K1, percent activation relative to standard Compound A in CHO-K1/sGC cells, read-out: % Act.; for EC50: inflection point (IP) of cGMP generation in CHO-K1/sGC cells, 4P fit, activity expressed as percentage of Compound A
T1 construct: expressed in transfected cells; host or cells: CHO-K1 (clone #7, CHO-K1/sGC)
T1 sequence (Q02108 1-690): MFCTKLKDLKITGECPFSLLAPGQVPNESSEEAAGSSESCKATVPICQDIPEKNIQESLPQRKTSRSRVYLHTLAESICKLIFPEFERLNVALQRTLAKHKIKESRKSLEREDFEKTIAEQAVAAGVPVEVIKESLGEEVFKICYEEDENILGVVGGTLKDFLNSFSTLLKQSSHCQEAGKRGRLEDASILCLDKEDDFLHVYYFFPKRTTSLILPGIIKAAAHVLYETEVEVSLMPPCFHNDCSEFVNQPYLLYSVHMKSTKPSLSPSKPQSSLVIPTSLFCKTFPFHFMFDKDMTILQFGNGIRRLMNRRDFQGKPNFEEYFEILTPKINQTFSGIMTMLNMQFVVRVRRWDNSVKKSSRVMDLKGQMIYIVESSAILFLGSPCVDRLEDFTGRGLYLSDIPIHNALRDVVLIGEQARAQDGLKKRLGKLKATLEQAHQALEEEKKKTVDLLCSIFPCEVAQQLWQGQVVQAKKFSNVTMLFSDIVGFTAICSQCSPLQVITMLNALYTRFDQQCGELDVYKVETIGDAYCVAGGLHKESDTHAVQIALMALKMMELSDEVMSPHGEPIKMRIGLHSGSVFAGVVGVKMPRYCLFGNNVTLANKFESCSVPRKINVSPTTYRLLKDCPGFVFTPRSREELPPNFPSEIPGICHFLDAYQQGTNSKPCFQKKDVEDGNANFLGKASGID
T1 sequence (Q02153 1-619): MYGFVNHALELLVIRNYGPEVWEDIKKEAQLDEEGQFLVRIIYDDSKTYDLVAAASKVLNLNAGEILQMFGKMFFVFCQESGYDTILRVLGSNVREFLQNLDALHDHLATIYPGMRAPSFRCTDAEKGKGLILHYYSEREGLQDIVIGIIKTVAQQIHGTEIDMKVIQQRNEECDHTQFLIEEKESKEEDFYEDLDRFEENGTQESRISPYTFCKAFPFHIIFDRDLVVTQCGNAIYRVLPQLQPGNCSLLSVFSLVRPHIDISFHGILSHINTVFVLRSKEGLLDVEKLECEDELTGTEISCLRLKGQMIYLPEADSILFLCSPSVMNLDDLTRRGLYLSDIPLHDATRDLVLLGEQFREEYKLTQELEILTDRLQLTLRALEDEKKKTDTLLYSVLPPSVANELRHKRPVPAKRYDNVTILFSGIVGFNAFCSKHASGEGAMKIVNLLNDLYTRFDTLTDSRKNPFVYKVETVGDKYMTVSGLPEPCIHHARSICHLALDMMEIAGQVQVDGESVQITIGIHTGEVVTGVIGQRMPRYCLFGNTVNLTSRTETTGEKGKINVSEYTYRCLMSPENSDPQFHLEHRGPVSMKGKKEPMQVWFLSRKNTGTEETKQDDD
Procedure, shortened: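 cGMP was quantified by HTRF after 1 hr, 37° C exposure of thawed CHO-K1 cells expressing sGC α1/β1 to compound, with or without 1 μM DETA-NO. IBMX (0.5 mM) blocked cGMP breakdown, and DMSO was 2.5% final. Percent of standard Compound A's maximal cGMP was fitted (4P) for inflection point.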

[1] = test system: Spontaneously hypertensive rats (SHR); assay: Acute efficacy in spontaneously hypertensive rats (SHR): telemetry blood pressure lowering after a single oral dose; type: in vivo, rat
Excerpt: Acute Efficacy in Spontaneously Hypertensive Rats (SHR)
Spontaneously hypertensive rats (SHR, male, Charles River) were implanted with DSI TA11PA-C40 telemetry device (Data Sciences, Inc., St. Paul, Minn.) under isoflurane or ketamine/metomidine anesthesia. The telemetry unit catheter was inserted into the descending aorta via the femoral artery and the telemetry device was implanted subcutaneously in the left flank area. Animals were allowed to recover from surgery for 14 days before the start of any studies. Blood pressure, heart rate, and activity signals from conscious, freely moving rats were recorded continuously for 30 seconds every 10 minutes. On the day prior to administration of compound, a single oral dose of vehicle (10% transcutol/20% Cremophor/70% water) was administered to all animals to establish baseline control data. The blood pressure lowering efficacy of compound (PO) or vehicle was evaluated following a single oral gavage. Data were collected as hourly averages, and changes in blood pressure were calculated by subtracting control baseline data on an hourly basis. Animals were maintained on normal diet with a 12 hour light-dark cycle.
Maximum peak decreases of systolic blood pressure (SBP) in SHR at a particular P.O. dose (mpk milligrams per kilogram) for the following representative compounds are provided. Category A=SBP in SHRs<20 mmHg; Category B=SBP in SHRs 20-40 mmHg; Category C=SBP in SHRs>40 mmHg

| SMILES | Emax (sGC α1/β1 heterodimer) [%] | EC50 (sGC α1/β1 heterodimer) [nM] | Maximum peak decrease of systolic blood pressure (SBP) in SHR, Cat. ([1]; P.O. 1.0 mpk) | Maximum peak decrease of systolic blood pressure (SBP) in SHR, Cat. ([1]; P.O. 3.0 mpk) |
| --- | --- | --- | --- | --- |
| CCc1nc(-c2nc(N)c3c(n2)NC(=O)C3(C)c2ccc(Cl)cc2)cn2ccnc12 (single isomer, unassigned) [Example 1A, 4-Amino-5-(4-chlorophenyl)-2-(8-ethylimidazo[1,2-a]pyrazin-6-yl)-5-methyl-5H-pyrrolo[2,3-d]pyrimidin-6(7H)-one] | 124 | 894 | B (Category B=SBP in SHRs 20-40 mmHg) |  |
| Cc1nnc(C2(C)C(=O)Nc3nc(-c4cn5ccnc5c(Cc5ccc(F)cc5)n4)nc(N)c32)o1 (single isomer, unassigned) [Example 29A, 4-Amino-2-(8-(4-fluorobenzyl)imidazo[1,2-a]pyrazin-6-yl)-5-methyl-5-(5-methyl-1,3,4-oxadiazol-2-yl)-5H-pyrrolo[2,3-d]pyrimidin-6(7H)-one] | 102 | 299 |  | B (Category B=SBP in SHRs 20-40 mmHg) |
| CCc1nnc(C2(C3CC3)C(=O)Nc3nc(-c4cn5ccnc5c(CCC(F)(F)C(F)(F)F)n4)nc(N)c32)s1 (single isomer, unassigned) [Example 30A, 4-Amino-5-cyclopropyl-5-(5-ethyl-1,3,4-thiadiazol-2-yl)-2-(8-(3,3,4,4,4-pentafluorobutyl)imidazo[1,2-a]pyrazin-6-yl)-5H-pyrrolo[2,3-d]pyrimidin-6(7H)-one] | 113 | 358 |  | C (Category C=SBP in SHRs>40 mmHg) |
| CN(C)c1nc(-c2cn3ccnc3c(CCC(F)(F)C(F)(F)F)n2)nc2c1C(C)(c1ccc(F)cc1)C(=O)N2 (stereo not drawn) [Example 308A, 4-(dimethylamino)-5-(4-fluorophenyl)-5-methyl-2-(8-(3,3,4,4,4-pentafluorobutyl)imidazo[1,2-a]pyrazin-6-yl)-5H-pyrrolo[2,3-d]pyrimidin-6(7H)-one] | 126 | 281 |  |  |
| Nc1nc(-c2cn3ccnc3c(CCC(F)(F)F)n2)nc2c1C(c1ccc(C(F)(F)F)cn1)(C1CC1)C(=O)N2 (stereo not drawn) [Example 340A, 4-amino-5-cyclopropyl-5-(5-(trifluoromethyl)pyridin-2-yl)-2-(8-(3,3,3-trifluoropropyl)imidazo[1,2-a]pyrazin-6-yl)-5H-pyrrolo[2,3-d]pyrimidin-6(7H)-one] | 129 | 808 |  |  |
| CCCc1nc(-c2nc(N)c3c(n2)NC(=O)C3(c2ccc(C(F)(F)F)cn2)C2CC2)cn2ccnc12 (stereo not drawn) [Example 341A, 4-amino-5-cyclopropyl-2-(8-propylimidazo[1,2-a]pyrazin-6-yl)-5-(5-(trifluoromethyl)pyridin-2-yl)-5H-pyrrolo[2,3-d]pyrimidin-6(7H)-one] | 106 | 2100 |  |  |
| Nc1nc(-c2cn3ccnc3c(CCC(F)(F)F)n2)nc2c1C(c1ncc(Cl)cn1)(C1CC1)C(=O)N2 (stereo not drawn) [Example 374A, 4-amino-5-(5-chloropyrimidin-2-yl)-5-cyclopropyl-2-(8-(3,3,3-trifluoropropyl)imidazo[1,2-a]pyrazin-6-yl)-5H-pyrrolo[2,3-d]pyrimidin-6(7H)-one] | 126 | 387 |  |  |
| Nc1nc(-c2cn3ccnc3c(CCC(F)(F)C(F)(F)F)n2)nc2c1C(c1ccccn1)(C1CC1)C(=O)N2 (stereo not drawn) [Example 382B, 4-Amino-5-cyclopropyl-2-(8-(3,3,4,4,4-pentafluorobutyl)imidazo[1,2-a]pyrazin-6-yl)-5-(pyridin-2-yl)-5H-pyrrolo[2,3-d]pyrimidin-6(7H)-one] | 149 | 453 |  |  |

The next molecules have a lower EC50 (sGC α1/β1 heterodimer) than those just listed; values first:

| Emax (sGC α1/β1 heterodimer) [%] | EC50 (sGC α1/β1 heterodimer) [nM] | SMILES | Maximum peak decrease of systolic blood pressure (SBP) in SHR, Cat. ([1]; P.O. 1.0 mpk) | Maximum peak decrease of systolic blood pressure (SBP) in SHR, Cat. ([1]; P.O. 3.0 mpk) |
| --- | --- | --- | --- | --- |
| 93 | 152 | CNc1nc(-c2cn3ccnc3c(CCC(F)(F)C(F)(F)F)n2)nc2c1C(C)(c1ccc(F)cc1)C(=O)N2 (stereo not drawn) [Example 307A, 5-(4-fluorophenyl)-5-methyl-4-(methylamino)-2-(8-(3,3,4,4,4-pentafluorobutyl)imidazo[1,2-a]pyrazin-6-yl)-5H-pyrrolo[2,3-d]pyrimidin-6(7H)-one] |  |  |
| 74 | 105 | CCCc1nc(-c2nc(N)c3c(n2)NC(=O)C3(C)c2ccc(Cl)cc2)cn2ccnc12 (single isomer, unassigned) [Example 2A, 4-Amino-5-(4-chlorophenyl)-5-methyl-2-(8-propylimidazo[1,2-a]pyrazin-6-yl)-5H-pyrrolo[2,3-d]pyrimidin-6(7H)-one] | C (Category C=SBP in SHRs>40 mmHg) |  |
| 204 | 85 | CCc1nc(C2(C)C(=O)Nc3nc(-c4cn5ccnc5c(CCC(F)(F)C(F)(F)F)n4)nc(N)c32)no1 (stereo not drawn) [Example 320B, 4-amino-5-(5-ethyl-1,2,4-oxadiazol-3-yl)-5-methyl-2-(8-(3,3,4,4,4-pentafluorobutyl)imidazo[1,2-a]pyrazin-6-yl)-5H-pyrrolo[2,3-d]pyrimidin-6(7H)-one] |  |  |
| 121 | 46 | COc1ccc(C2(C3CC3)C(=O)Nc3nc(-c4cn5ccnc5c(CCC(F)(F)C(F)(F)F)n4)nc(N)c32)cn1 (stereo not drawn) [Example 343A, 4-amino-5-cyclopropyl-5-(6-methoxypyridin-3-yl)-2-(8-(3,3,4,4,4-pentafluorobutyl)imidazo[1,2-a]pyrazin-6-yl)-5H-pyrrolo[2,3-d]pyrimidin-6(7H)-one] |  |  |
| 77 | 45 | CC1(c2ccc(F)cc2)C(=O)Nc2nc(-c3cn4ccnc4c(CCC(F)(F)C(F)(F)F)n3)nc(N3CCOCC3)c21 (stereo not drawn) [Example 310A, 5-(4-fluorophenyl)-5-methyl-4-morpholino-2-(8-(3,3,4,4,4-pentafluorobutyl)imidazo[1,2-a]pyrazin-6-yl)-5H-pyrrolo[2,3-d]pyrimidin-6(7H)-one] |  |  |
| 97 | 39 | COCCNc1nc(-c2cn3ccnc3c(CCC(F)(F)C(F)(F)F)n2)nc2c1C(C)(c1ccc(F)cc1)C(=O)N2 (stereo not drawn) [Example 309A, 5-(4-fluorophenyl)-4-((2-methoxyethyl)amino)-5-methyl-2-(8-(3,3,4,4,4-pentafluorobutyl)imidazo[1,2-a]pyrazin-6-yl)-5H-pyrrolo[2,3-d]pyrimidin-6(7H)-one] |  |  |
| 93 | 25 | CN(C)c1nc(-c2cn3ccnc3cn2)nc2c1C(C)(c1ccc(Cl)cc1)C(=O)N2 (stereo not drawn) [Example 312A] |  |  |
| 93 | 25 | COCCNc1nc(-c2cn3ccnc3c(CCC(F)(F)C(F)(F)F)n2)nc2c1C(C)(C)C(=O)N2 [Example 313, 4-((2-Methoxyethyl)amino)-5,5-dimethyl-2-(8-(3,3,4,4,4-pentafluorobutyl)imidazo[1,2-a]pyrazin-6-yl)-5H-pyrrolo[2,3-d]pyrimidin-6(7H)-one] |  |  |
